In assay [1] the test system is PC-3. Kind of assay: Anticancer activity against human PC-3 cells assessed as reduction in cell viability by MTT assay. The class given is functional, cell-based.
Assay [2] has as its system Colletotrichum gloeosporioides. Kind of assay: Antifungal activity against Colletotrichum gloeosporioides assessed as inhibition of fungal growth by broth microdilution method. It counts as functional, organism-based.
Assay [3] can be described thus: Inhibition of LPS-induced NF-kappaB activation in mouse RAW264.7 cells transfected with NF-kappaB luciferase reporter gene pretreated with compounds for 30 mins followed by LPS stimulation for 8 hrs by luciferase reporter gene assay. The class given is cell-based. On the technique in general: In a reporter assay the amount or activity of a reporter protein is the signal.

The test system of assay [4] is Pyricularia grisea. Kind of assay: Antifungal activity against Magnaporthe grisea assessed as inhibition of fungal growth by broth microdilution method. It counts as functional, organism-based. For orientation: Broth dilution looks for growth in wells or tubes with falling amounts of substance.
The subject of assay [5] is Sclerotinia sclerotiorum. Description: Antifungal activity against Sclerotinia sclerotiorum Hanzawa assessed as inhibition of fungal growth by broth microdilution method. It counts as functional, organism-based.
For assay [6], the system named is CWR22R. Description: Anticancer activity against human 22Rv1 cells assessed as reduction in cell viability by MTT assay. It counts as functional, cell-based. On the technique in general: Tetrazolium assays rely on reduction of a dye to a coloured formazan, in cell work by metabolically active cells.
Assay [7] has as its system DU-145. Kind of assay: Anticancer activity against human DU-145 cells assessed as reduction in cell viability by MTT assay. It counts as functional, cell-based.
Assay [8] has as its system Candida albicans. Kind of assay: Antifungal activity against Candida albicans Berkhout assessed as inhibition of fungal growth by broth microdilution method. It counts as functional, organism-based.
The test system of assay [9] is LNCaP. Description: Anticancer activity against human LNCaP cells assessed as reduction in cell viability by MTT assay. It counts as functional, cell-based.
Assay [10] deals with Staphylococcus aureus. Description: Antibacterial activity against Staphylococcus aureus assessed as inhibition of bacterial growth by broth microdilution method. The class given is functional, organism-based.
In assay [11] the test system is Klebsiella pneumoniae. Kind of assay: Antibacterial activity against Klebsiella pneumoniae assessed as inhibition of bacterial growth by broth microdilution method. It counts as functional, organism-based.
The test system of assay [12] is BMMC. Kind of assay: Anti-osteoclastogenic activity in mouse BMMC assessed as inhibition of RANKL-induced osteoclast differentiation at 5 to 15 uM and measured after 3 days by TRAP staining inverted microscopic analysis. The class given is functional, cell-based. Conditions: dose 5-15 µM, time 3.0 day.

The source made the active and inactive calls. The rule behind the calls is not given here.

A word on the IC50: it is the concentration needed to halve the response being measured. As for `C[C@@H]1C[C@@H]2[C@H](O)[C@H](O)[C@H](C)[C@](O)(/C=C/C=C/C(=O)O)[C@H]2[C@H](C)C1`, the outcome in assay [1], in assay [2], in assay [4], in assay [5], in [6] and in assay [7] was inactive. The outcome in assay [8], in assay [9], in assay [10] and in assay [11] was inactive. Also, the 50% inhibitory concentration (IC50) in assay [3] turned out to be 15.2 µM.
Consider `Cc1ccc2c(c1/C=C/C=C/C(=O)O)[C@H](C)C[C@@](C)(O)C2`, for which the result in assay [1], in [2], in assay [4], in assay [5], in assay [6] and in assay [7] was inactive. Moreover, the outcome in assay [8], in assay [9], in assay [10] and in [11] was inactive. In addition, the IC50 in assay [3] is 18.6 µM.
For `C[C@@H]1C[C@H](C)[C@H](O)c2ccc(CO)c(/C=C/C=C/C(=O)O)c21`, the outcome in [1], in assay [2], in assay [4], in assay [5], in assay [6] and in assay [7] was inactive. The result in [8], in assay [9], in assay [10] and in [11] was inactive. In assay [12], the Activity entry is “Dose-Dependent Effect”. The IC50 in assay [3] came out at 10.4 µM.
`Cc1ccc(S(=O)(=O)/C=C/C#N)cc1`: the half-inhibitory concentration (IC50) in assay [3] is 5 µM.
